Measurements from patent publication US7462613B2, “Pyridazinone derivatives as pharmaceuticals and pharmaceutical compositions containing them” (SANOFI-AVENTIS Deutschland GmbH, priority 2002, dated 2008).

biological target: CDK2/Cyclin E kinase (Homo sapiens, UniProt P24941); assay: CDK2/Cyclin E Flashplate Assay: 96-Well Format; type: biochemical; conditions: streptavidin-coated flashplate; biotinylated-Rb peptide substrate 10 μM; 33P-ATP/ATP 1 μM; CDK2/Cyclin E 20 nM; 30 minutes at 30° C.; 1% DMSO
Experimental: Functional Measurements for Determination of IC50-Values
CDK2/Cyclin E Flashplate Assay: 96-Well Format
A 96-well streptavidin-coated flashplate was used to assay potency of compounds according formula (I) against CDK2/Cyclin E kinase. To carry out the assay, biotinylated-Rb peptide substrate (Biotin-[…]-OH) was solubilized at 1 mM in kinase buffer (Hepes 50 mM, NaCl 1 mM, MgCl2 5 mM pH 7.5) as a stock solution conserved at −20° C. in aliquots of 110 μl. The day of the experiment, an aliquot of this solution was thawed and diluted to 14.3 μM in kinase buffer, containing 1 mM dithiothreitol (DTT) added in the buffer at the same time.
70 μl of this solution was added in each well of the flashplate in order to achieve a final concentration of 10 μM (100 μl reactionnal volume). Serial dilutions of inhibitors were prepared in DMSO from 10 mM stock solutions in order to achieve 1000 μM, 333.3 μM, 111.1 μM, 37.03 μM, 12.35 μM, 4.11 μM and 1.37 μM and all were rediluted in kinase buffer+DTT in order to achieve 100 μM, 33.3 μM, 11.1 μM, 3.7 μM, 1.24 μM, 0.41 μM and 0.14 μM in DMSO 10% buffer (vol/vol). 10 μl of each, of these solutions (or 10 μl of buffer+DTT for controls) were transferred to the testplate wells in order to achieve 10 μM, 3.33 μM, 1.11 μM, 0.37 μM, 0.12 μM, 0.04. μM and 0.01 μM as final concentrations, 1% DMSO (vol/vol). In each well, 10 μl of a solution of a mix of ^33PyATP/ATP were added in order to achieve 1 μM final concentration and a total of 1 μCi. The kinase reaction was initiated by addition of 10 μl of a solution at 200 nM of CDK2/Cyclin E in kinase buffer+DTT (or buffer+DTT for blanks) in order to achieve 20 nM final concentration. After addition of each reagent, the test-plate was shakened. The plates were incubated 30 minutes at 30° C. with a shaking at 650 rpm. At the end of the incubation, the plates were washed 3 times with 300 μl of PBS (without calcium and magnesium) per well. The incorporation of ^33P to the peptide was measured by scintillation counting.

Point of comparison: `O=C(NCCCc1ccccc1)c1cc(-c2ccncc2)n[nH]c1=O` [Example 66, 3-Oxo-6-pyridin-4-yl-2,3-dihydro-pyridazine-4-carboxylic acid (3-phenyl-propyl)-amide; compoundwith trifluoro-acetic acid], IC50 521 nM. Against it:
- O=C(NCc1ccc(Cl)cc1Cl)c1cc(-c2ccncc2)n[nH]c1=O [Example 2, N-(2,4-dichlorobenzyl)-3-oxo-6-pyridin-4-yl-2,3-dihydropyridazine-4-carboxamide] — 1.7-fold higher, 905 nM
- O=C(NCc1ccc(Cl)cc1)c1cc(-c2ccncc2)n[nH]c1=O [Example 4, N-(4-chlorobenzyl)-3-oxo-6-pyridin-4-yl-2,3-dihydropyridazine-4-carboxamide-6] — within 1.5-fold, 577 nM
- CCOC(=O)CCNC(=O)c1cc(-c2ccncc2)n[nH]c1=O [Example 13, Ethyl 3-[(3-oxo-6-pyridin-4-yl-2,3-dihydropyridazine-4-carbonyl)amino]propionate] — within 1.5-fold, 764 nM
- O=C(NCc1ccc(Cl)c(Cl)c1)c1cc(-c2ccncc2)n[nH]c1=O [Example 16, N-(3,4-dichlorobenzyl)-3-oxo-6-pyridin-4-yl-2,3-dihydropyridazine-4-carboxamide] — 3-fold lower, 174 nM
- O=C(NCc1ccc(O)cc1)c1cc(-c2ccncc2)n[nH]c1=O [Example 18, N-(4-hydroxybenzyl)-3-oxo-6-pyridin-4-yl-2,3-dihydropyridazine-4-arboxamide] — within 1.5-fold, 536 nM
- O=C(NCCCCO)c1cc(-c2ccncc2)n[nH]c1=O [Example 31, 3-Oxo-6-pyridin-4-yl-2,3-dihydro-pyridazine-4-carboxylic acid (4-hydroxy-butyl)-amide] — within 1.5-fold, 581 nM
- CNc1nccc(-c2cc(C(=O)NCc3ccc(Cl)cc3)c(=O)[nH]n2)n1 [Example 34, 6-(2-Methylamino-pyrimidin-4-yl)-3-oxo-2,3-dihydro-pyridazine-4-carboxylic acid 4-chloro-benzylamide] — 17-fold lower, 30 nM
- O=C(NCc1ccc(Cl)cc1)c1cc(-c2cn[nH]c2)n[nH]c1=O [Example 39, 3-Oxo-6-(1H-pyrazol-4-yl)-2,3-dihydro-pyridazine-4-carboxylic acid 4-chloro-benzylamide] — 1.5-fold lower, 344 nM
- O=C(NCc1ccc(Cl)cc1)c1cc(-c2ccc(O)cc2)n[nH]c1=O [Example 40, 6-(4-Hydroxy-phenyl)-3-oxo-2,3-dihydro-pyridazine-4-carboxylicacid 4-chloro-benzylamide] — 4.4-fold lower, 119 nM
- COc1cc(-c2cc(C(=O)NCc3ccc(Cl)cc3)c(=O)[nH]n2)ccc1O [Example 41, 6-(4-Hydroxy-3-methoxy-phenyl)-3-oxo-2,3-dihydro-pyridazine-4-carboxylic acid 4-chloro-benzylamide] — 3.5-fold lower, 147 nM
- COc1cc(-c2cc(C(=O)NCCCc3cccnc3)c(=O)[nH]n2)ccc1O [Example 49, 6-(4-Hydroxy-3-methoxy-phenyl)-3-oxo-2,3-dihydro-pyridazine-4-carboxylic acid (3-pyridin-3-yl-propyl)-amide] — 3-fold lower, 175 nM
- O=C(NCc1ccc(Br)cc1)c1cc(-c2ccncc2)n[nH]c1=O [Example 75, 3-Oxo-6-pyridin-4-yl-2,3-dihydro-pyridazine-4-carboxylic acid 4-bromo-benzylamide; compoundwith trifluoro-acetic acid] — 1.5-fold higher, 802 nM
- COc1ccc(CNC(=O)c2cc(-c3ccncc3)n[nH]c2=O)cc1 [Example 83, 3-Oxo-6-pyridin-4-yl-2,3-dihydro-pyridazine-4-carboxylic acid 4-methoxy-benzylamide;compound with trifluoro-acetic acid] — within 1.5-fold, 552 nM
- O=C(NCc1ccc2c(c1)OCO2)c1cc(-c2ccncc2)n[nH]c1=O [Example 84, 3-Oxo-6-pyridin-4-yl-2,3-dihydro-pyridazine-4-carboxylic acid(benzo[1,3]dioxol-5-ylmethyl)-amide;compound with trifluoro-acetic acid] — 2.4-fold lower, 219 nM
- O=C(NCc1ccc(F)c(Br)c1)c1cc(-c2ccncc2)n[nH]c1=O [Example 93, 3-Oxo-6-pyridin-4-yl-2,3-dihydro-pyridazine-4-carboxylic acid 3-bromo-4-fluoro-benzylamide;compound with trifluoro-acetic acid] — within 1.5-fold, 349 nM
- CS(=O)(=O)c1ccc(CNC(=O)c2cc(-c3ccncc3)n[nH]c2=O)cc1 [Example 98, 3-Oxo-6-pyridin-4-yl-2,3-dihydro-pyridazine-4-carboxylic acid 4-methanesulfonyl-benzylamide; compoundwith trifluoro-acetic acid] — within 1.5-fold, 664 nM
- O=C(NCCc1ccccc1Cl)c1cc(-c2ccncc2)n[nH]c1=O [Example 103, 3-Oxo-6-pyridin-4-yl-2,3-dihydro-pyridazine-4-carboxylic acid [2-(2-chloro-phenyl)-ethyl]-amide; compound withtrifluoro-acetic acid] — 3.2-fold lower, 164 nM
- O=C(NCc1ccc(C(F)(F)F)cc1)c1cc(-c2ccncc2)n[nH]c1=O [Example 112, 3-Oxo-6-pyridin-4-yl-2,3-dihydro-pyridazine-4-carboxylic acid 4-trifluoromethyl-benzylamide; compoundwith trifluoro-acetic acid] — within 1.5-fold, 360 nM
- O=C(NCc1ccc(Cl)cc1F)c1cc(-c2ccncc2)n[nH]c1=O [Example 116, 3-Oxo-6-pyridin-4-yl-2,3-dihydro-pyridazine-4-carboxylic acid 4-chloro-2-fluoro-benzylamide;compound with trifluoro-acetic acid] — 1.5-fold higher, 787 nM
- O=C(NCc1ccc(F)cc1)c1cc(-c2ccncc2)n[nH]c1=O [Example 125, 3-Oxo-6-pyridin-4-yl-2,3-dihydro-pyridazine-4-carboxylic acid 4-fluoro-benzylamide; compoundwith trifluoro-acetic acid] — within 1.5-fold, 519 nM
- Cc1ccc(CNC(=O)c2cc(-c3ccncc3)n[nH]c2=O)s1 [Example 139, 3-Oxo-6-pyridin-4-yl-2,3-dihydro-pyridazine-4-carboxylic acid (5-methyl-thiophen-2-ylmethyl)-amide; compound withtrifluoro-acetic acid] — within 1.5-fold, 353 nM
- O=C(NCc1ccc(Cl)s1)c1cc(-c2ccncc2)n[nH]c1=O [Example 142, 3-Oxo-6-pyridin-4-yl-2,3-dihydro-pyridazine-4-carboxylic acid (5-chloro-thiophen-2-ylmethyl)-amide; compound withtrifluoro-acetic acid] — within 1.5-fold, 356 nM
- O=C(NCCCc1cccnc1)c1cc(-c2ccc(O)cc2)n[nH]c1=O [Example 164, 6-(4-Hydroxy-phenyl)-3-oxo-2,3-dihydro-pyridazine-4-carboxylicacid (3-pyridin-3-yl-propyl)-amide] — 3.9-fold lower, 133 nM
- C[C@@H](Nc1nccc(-c2cc(C(=O)NCCCc3cccnc3)c(=O)[nH]n2)n1)c1ccccc1 [Example 167, R-3-Oxo-6-[2-(1-phenyl-ethylamino)-pyrimidin-4-yl]-2,3-dihydro-pyridazine-4-carboxylic acid (3-pyridin-3-yl-propyl)-amide] — 4.2-fold lower, 125 nM
- O=C(NCc1ccc(Cl)cc1)c1cc(-c2ccnc(NCCN3CCOCC3)n2)n[nH]c1=O [Example 175, 6-[2-(2-Morpholin-4-yl-ethylamino)-pyrimidin-4-yl]-3-oxo-2,3-dihydro-pyridazine-4-carboxylicacid 4-chloro-benzylamide; compoundwith trifluoro-acetic acid] — 19-fold lower, 27 nM
- O=C(NCc1ccc(Cl)cc1)c1cc(-c2ccc(O)c(Cl)c2)n[nH]c1=O [Example 180, 6-(3-Chloro-4-hydroxy-phenyl)-3-oxo-2,3-dihydro-pyridazine-4-carboxylic acid 4-chloro-benzylamide] — 3-fold lower, 173 nM
- O=C(NCc1ccc(Cl)cc1)c1cc(-c2cc(F)c(O)c(F)c2)n[nH]c1=O [Example 182, 6-(3,5-Difluoro-4-hydroxy-phenyl)-3-oxo-2,3-dihydro-pyridazine-4-carboxylic acid 4-chloro-benzylamide] — within 1.5-fold, 464 nM
- O=C(NCc1ccc(Cl)cc1)c1cc(-c2ccc(O)c(F)c2)n[nH]c1=O [Example 183, 6-(3-Fluoro-4-hydroxy-phenyl)-3-oxo-2,3-dihydro-pyridazine-4-carboxylic acid 4-chloro-benzylamide] — 5.1-fold lower, 102 nM
- CCNc1nccc(-c2cc(C(=O)NCc3ccc(Cl)cc3)c(=O)[nH]n2)n1 [Example 190, 6-(2-Ethylamino-pyrimidin-4-yl)-3-oxo-2,3-dihydro-pyridazine-4-carboxylic acid 4-chloro-benzylamide] — 29-fold lower, 18 nM
